Data: paper PMC3527430, “Total Synthesis of Septocylindrin B and C-Terminus Modified Analogues” (PLoS ONE, 2012)
Like-named read-outs stand apart in the source and are kept apart here. Square brackets hold non-standard residues; d marks the D form. Peptide text beside a SMILES is read from it. * marks the point of attachment. X2 = CCCCCCNC[C@H](Cc1ccccc1)N*; X3 = OCCCCCNC[C@H](Cc1ccccc1)N*; X1 = OCCNC[C@H](Cc1ccccc1)N*; Aib = CC(C)(N)C(=O)O

Key:
Bacillus cereus = format: cell-based
Description: (§1) All these peptides were tested for their antibacterial activity using standard minimal inhibitory concentration (MIC) assays exactly as described in Mattheus et al. […] They are identical except for the glutamine residues, which are replaced with methyl protected glutamic acid residues in ABCD-Phaol. Although ABCD-Phaol should be a functionally reliable model of its natural counterpart, the difference in activity can only be explained by the different interaction with the membrane of the amino acid residue side chains. The amide interaction positively influences activity, so the conversion of Glu(OMe) to Gln improves the activity.

Enterococcus faecalis = format: cell-based
Description: as §1

Bacillus subtilis = format: cell-based
Description: as §1

Staphylococcus aureus [1] = format: cell-based
Description: as §1

[2] = system: Bacillus cereus, Bacillus subtilis, Enterococcus faecalis, Staphylococcus aureus; assay: Antibacterial activity, MIC assays, overall statement on the bacteria tested; format: cell-based; conditions: standard MIC assays; four bacteria tested
Description: as §1

Staphylococcus aureus [3] = conditions: natural Septocylindrin B; ref [1]; cited from earlier work
Excerpt: Table 1 Antibacterial activity (MIC, µM) of Septocylindrin B and selected analogues. ^a | column: Staphylococcus aureus

[4] = standard MIC assay as described in Mattheus et al. [13], cell holds only footnote mark d
[5] = standard MIC assay as described in Mattheus et al. [13]

Compound	Antibacterial activity (MIC) Bacillus cereus (Bacillus cereus) [µM]	Antibacterial activity (MIC) Enterococcus faecalis (Enterococcus faecalis) [µM]	Antibacterial activity (MIC) Bacillus subtilis (Bacillus subtilis) [µM]	Antibacterial activity (MIC) Staphylococcus aureus (Staphylococcus aureus [1]) [µM]	Antibacterial activity (MIC) Staphylococcus aureus (Staphylococcus aureus [1]; [4])	Antibacterial activity, result in words [2]	Antibacterial activity (MIC) Staphylococcus aureus (Staphylococcus aureus [3]) [µM]	Antibacterial activity (MIC) Bacillus cereus (Bacillus cereus; [5]) [µM]	Antibacterial activity (MIC) Enterococcus faecalis (Enterococcus faecalis; [5]) [µM]	Antibacterial activity (MIC) Bacillus subtilis (Bacillus subtilis; [5]) [µM]
CCCCCCNC[C@H](Cc1ccccc1)NC(=O)[C@H](CCC(=O)OC)NC(=O)[C@H](CCC(=O)OC)NC(=O)C(C)(C)NC(=O)C(C)(C)NC(=O)[C@@H](NC(=O)[C@@H]1CCCN1C(=O)C(C)(C)NC(=O)[C@H](CC(C)C)NC(=O)CNC(=O)C(C)(C)NC(=O)[C@@H](NC(=O)C(C)(C)NC(=O)[C@H](CCC(=O)OC)NC(=O)[C@H](C)NC(=O)C(C)(C)NC(=O)[C@H](C)NC(=O)C(C)(C)NC(=O)[C@@H]1CCCN1C(=O)C(C)(C)NC(C)=O)C(C)C)C(C)C [ABCD-Phaol-N6, Ac-Aib1-Pro2-Aib3-Ala4-Aib5-Ala6-Glu(OMe)7-Aib8-Val9-Aib10-Gly11-Leu12-Aib13-Pro14-Val15-Aib16-Aib17-Glu(OMe)18-Glu(OMe)19-Phaol20-N6] (Ac-[Aib]P[Aib]A[Aib]AE(OMe)[Aib]V[Aib]GL[Aib]PV[Aib][Aib]E(OMe)E(OMe)-X2)	>100	25	>100	>100						
COC(=O)CC[C@H](NC(=O)[C@H](C)NC(=O)C(C)(C)NC(=O)[C@H](C)NC(=O)C(C)(C)NC(=O)[C@@H]1CCCN1C(=O)C(C)(C)NC(C)=O)C(=O)NC(C)(C)C(=O)N[C@H](C(=O)NC(C)(C)C(=O)NCC(=O)N[C@@H](CC(C)C)C(=O)NC(C)(C)C(=O)N1CCC[C@H]1C(=O)N[C@H](C(=O)NC(C)(C)C(=O)NC(C)(C)C(=O)N[C@@H](CCC(=O)OC)C(=O)N[C@@H](CCC(=O)OC)C(=O)N[C@H](CNCCO)Cc1ccccc1)C(C)C)C(C)C [ABCD-Phaol] (Ac-[Aib]P[Aib]A[Aib]AE(OMe)[Aib]V[Aib]GL[Aib]PV[Aib][Aib]E(OMe)E(OMe)-X1)	>50	6	>50	>50						
COC(=O)CC[C@H](NC(=O)[C@H](C)NC(=O)C(C)(C)NC(=O)[C@H](C)NC(=O)C(C)(C)NC(=O)[C@@H]1CCCN1C(=O)C(C)(C)NC(C)=O)C(=O)NC(C)(C)C(=O)N[C@H](C(=O)NC(C)(C)C(=O)NCC(=O)N[C@@H](CC(C)C)C(=O)NC(C)(C)C(=O)N1CCC[C@H]1C(=O)N[C@H](C(=O)NC(C)(C)C(=O)NC(C)(C)C(=O)N[C@@H](CCC(=O)OC)C(=O)N[C@@H](CCC(=O)OC)C(=O)N[C@H](CNCCCCCO)Cc1ccccc1)C(C)C)C(C)C [ABCD-Phaol-N5O, Ac-Aib1-Pro2-Aib3-Ala4-Aib5-Ala6-Glu(OMe)7-Aib8-Val9-Aib10-Gly11-Leu12-Aib13-Pro14-Val15-Aib16-Aib17-Glu(OMe)18-Glu(OMe)19-Phaol20-N5O] (Ac-[Aib]P[Aib]A[Aib]AE(OMe)[Aib]V[Aib]GL[Aib]PV[Aib][Aib]E(OMe)E(OMe)-X3)	50	1.5	>100		^d (A reduced growth is clearly visible, but no MIC end point ≤100 µM)					
CC(=O)NC(C)(C)C(=O)N1CCC[C@H]1C(=O)NC(C)(C)C(=O)N[C@@H](C)C(=O)NC(C)(C)C(=O)N[C@@H](C)C(=O)N[C@@H](CCC(N)=O)C(=O)NC(C)(C)C(=O)N[C@H](C(=O)NC(C)(C)C(=O)NCC(=O)N[C@@H](CC(C)C)C(=O)NC(C)(C)C(=O)N1CCC[C@H]1C(=O)N[C@H](C(=O)NC(C)(C)C(=O)NC(C)(C)C(=O)N[C@@H](CCC(N)=O)C(=O)N[C@@H](CCC(N)=O)C(=O)N[C@H](CNCCO)Cc1ccccc1)C(C)C)C(C)C [Septocylindrin B synthetic] (Ac-[Aib]P[Aib]A[Aib]AQ[Aib]V[Aib]GL[Aib]PV[Aib][Aib]QQ-X1)	6.25	6.25	12.5	12.5		activity against all four bacteria tested	8			
Ac-Aib1-Pro2-Aib3-Ala4-Aib5-Ala6-Glu(OMe)7-Aib8-Val9-Aib10-Gly11-Leu12-Aib13-Pro14-Val15-Aib16-Aib17-Glu(OMe)18-Glu(OMe)19- Phe20-ethanolamine [ABCD-Phe-ethanolamine]					^d (A reduced growth is clearly visible, but no MIC end point ≤100 µM)			100	6	>100
